Structures can show the parent of a compound that is named as a salt. Where two headings read alike, the source gives them in different places.
Tests used:
[1] = test system: TNF alpha, BALB/c mice injected with LPS; experiment: Mouse model of LPS-induced TNF alpha production; type: in vivo; conditions: Table 6; mouse LPS, head '8 h', dose 30, oral gavage
How it was run: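 Female BALB/c mice aged 10–12 weeks received 100 ng LPS i.v. and were bled 1 h later, with serum TNF measured by ELISA. Compound was given by oral gavage in mg/kg at the stated hours before LPS. Values are % inhibition against vehicle-treated LPS mice.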

[2] = test system: collagen-induced arthritis, DBA/1 male mice; experiment: Collagen-induced arthritis in mice; type: in vivo, mouse; conditions: oral gavage b.i.d., day 20 to day 56
Method: Induction and Assessment of Collagen-induced Arthritis in Mice:
Arthritis was induced in mice according to the procedure set forth in J. M. Stuart, Collagen Autoimmune Arthritis, Annual Rev. Immunol. 2:199 (1984), which is incorporated herein by reference. Specifically, arthritis was induced in 8-12 week old DBA/1 male mice by injection of 50 μg of chick type II collagen (CII) (provided by Dr. Marie Griffiths, Univ. of Utah, Salt Lake City, Utah) in complete Freund's adjuvant (Sigma) on day 0 at the base of the tail. Injection volume was 100 μl. Animals were boosted on day 21 with 50 μg of CII in incomplete Freund's adjuvant (100 μl volume). Animals were evaluated several times each week for signs of arthritis. Any animal with paw redness or swelling was counted as arthritic. Scoring of arthritic paws was conducted in accordance with the procedure set forth in Wooley et al., Genetic Control of Type II Collagen Induced Arthritis in Mice: Factors Influencing Disease Suspectibility and Evidence for Multiple MHC Associated Gene Control., Trans. Proc., 15:180 (1983). Scoring of severity was carried out using a score of 1-3 for each paw (maximal score of 12/mouse). Animals displaying any redness or swelling of digits or the paw were scored as 1. Gross swelling of the whole paw or deformity was scored as 2. Ankylosis of joints was scored as 3. Animals were evaluated for 8 weeks. 8-10 animals per group were used.
Preparation and Administration of Compounds:
The compounds tested on mice having collagen-induced arthritis were prepared as a suspension in 0.5% methylcelluose (Sigma, St. Louis, Mo.), 0.025% Tween 20 (Sigma). The compound suspensions were administered by oral gavage in a volume of 0.1 ml b.i.d. Administration began on day 20 post collagen injection and continued daily until final evaluation on day 56. Scoring of arthritic paws was conducted as set forth above.

[3] = target: T1, human GST-p38 kinase alpha (Homo sapiens, UniProt Q16539); experiment: p38 kinase in vitro assay, second format, phosphorylation of EGFRP with 33P-ATP; type: biochemical
T1 construct: made in house; host or cells: E. coli DH10B
Method: The ability of compounds to inhibit human p38 kinase alpha was evaluated using two in vitro assay methods. In the first method, activated human p38 kinase alpha phosphorylates a biotinylated substrate, PHAS-I (phosphorylated heat and acid stable protein-insulin inducible), in the presence of gamma ^32P-ATP (^32P-ATP). PHAS-I was biotinylated prior to the assay and provides a means of capturing the substrate which is phosphorylated during the assay. p38 Kinase was activated by MKK6. Compounds were tested in 10 fold serial dilutions over the range of 100 μM to 0.001 μM using 1% DMSO. Each concentration of inhibitor was tested in triplicate.
A second assay format was also employed that is based on p38 kinase alpha induced phosphorylation of EGFRP (epidermal growth factor receptor peptide, a 21 mer) in the presence of ^33P-ATP. Compounds were tested in 10 fold serial dilutions over the range of 100 μM to 0.001 μM in 10% DMSO. Each concentration of inhibitor was tested in triplicate. Compounds were evaluated in 50 μl reaction volumes in the presence of 25 mM Hepes pH 7.5, 10 mM magnesium acetate, 4% glycerol, 0.4% bovine serum albumin, 0.4 mM DTT, 50 μM unlabeled ATP, 25 μg EGFRP (200 μM), and 0.05 μCi gamma ^33P-ATP. Reactions were initiated by addition of 0.09 μg of activated, purified human GST-p38 kinase alpha. Activation was carried out using GST-MKK6 (5:1,p38:MKK6) for one hour at 30° C. in the presence of 50 μM ATP. Following incubation for 60 minutes at room temperature, the reaction was stopped by addition of 150 μl of AG 1X8 resin in 900 mM sodium formate buffer, pH 3.0 (1 volume resin to 2 volumes buffer). The mixture was mixed three times with pipetting and the resin was allowed to settle. A total of 50 μl of clarified solution head volume was transferred from the reaction wells to Microlite-2 plates. 150 μl of Microscint 40 was then added to each well of the Microlite plate, and the plate was sealed, mixed, and counted.

[4] = Table 10, 10% DMSO, @ 1.0 hour, read-out: p38α Kinase Assay IC50

T1 sequence (Q16539 whole entry): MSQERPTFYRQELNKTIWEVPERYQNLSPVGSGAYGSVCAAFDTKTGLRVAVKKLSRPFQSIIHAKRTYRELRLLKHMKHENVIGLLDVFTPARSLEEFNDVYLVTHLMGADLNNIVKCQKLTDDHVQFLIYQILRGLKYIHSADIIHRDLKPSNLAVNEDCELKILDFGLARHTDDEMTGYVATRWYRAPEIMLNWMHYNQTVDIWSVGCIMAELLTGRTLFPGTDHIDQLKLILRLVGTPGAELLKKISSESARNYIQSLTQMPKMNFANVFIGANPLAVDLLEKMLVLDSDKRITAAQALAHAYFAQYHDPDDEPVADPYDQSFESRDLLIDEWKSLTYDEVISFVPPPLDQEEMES

## OCCn1cc(-c2ccncc2)c(-c2ccc(F)cc2)n1 [Example A-210, 3-(4-fluorophenyl)-4-(4-pyridinyl)-1H-pyrazole-1-ethanol]
[1]
  mLPS 8 h percent inhibition: 85%
[2]; 15 mpk
  % Inhibition of Arthritis: 58.5 @ 15 mpk %

## O[C@H]1CC[C@H](Nc2cc(-c3c[nH]nc3-c3ccc(F)cc3)ccn2)CC1 [Example A-386, trans-4-[[4-[3-(4-fluorophenyl)-1H-pyrazol-4-yl]-2-pyridinyl]amino]cyclohexanol]
[3]; Table 9, 10% DMSO, read-out: p38α Kinase Assay IC50
  IC50: 16 nM

## Fc1ccc(-c2[nH]ncc2-c2ccnc(NCCn3ccnc3)c2)cc1 [Example A-268, 4-[3-(4-fluorophenyl)-1H-pyrazol-4-yl]-N-[2-(1H-imidazol-1-yl)ethyl]-2-pyridinamine]
[3]; Table 6, EGFRP assay procedure, read-out: p38^2 (p38α in vitro assay, EGFRP assay procedure) IC50
  IC50: < 10 nM

## Fc1ccc(-c2[nH]nc(N3CCNCC3)c2-c2ccncc2)cc1 [Example A-172, 1-[5-(4-fluorophenyl)-4-(4-pyridinyl)-1H-pyrazol-3-yl]piperazine trihydrochloride]
[2]; 100 mpk
  % Inhibition of Arthritis: 49.3 @ 100 mpk %

## Fc1ccc(-c2[nH]nc(C3CC3)c2-c2ccncc2)cc1 [Example A-189, 4-[3-cyclopropyl-5-(4-fluorophenyl)-1H-pyrazol-4-yl]pyridine]
[2]; 30 mpk
  % Inhibition of Arthritis: 51.6 @ 30 mpk %

## COc1ccc(-c2n[nH]c(N3CCN(C)CC3)c2-c2ccncc2)cc1 [Example A-415, 1-(4-(4-methoxyphenyl)-4-(4-pyridinyl)-1H-pyrazol-3-yl]-4-methylpiperazine]
[3]; [4]
  IC50: 510 nM

## O=C(C(=C1SCS1)c1ccncc1)c1ccc(I)cc1 [Example A-401]
[3]; [4]
  IC50: 21200 nM

Reference: US6979686B1, “Substituted pyrazoles as p38 kinase inhibitors” (Pharmacia Corporation, priority 2001, dated 2005)
